Measured values from PubChem BioAssay AID2753 (Vanderbilt High Throughput Screening Facility, 2010).
Calls of active or inactive are those of the source. The rule behind the calls is not given here.

Molecular target: ATP-sensitive inward rectifier potassium channel 1 (Homo sapiens) (UniProt P48048)
Experiment: ROMK channel inhibitor potency, dose response, cell-based, thallium flux, HEK293 (AID 2753)
Settings: fluorescence

Sequence of ATP-sensitive inward rectifier potassium channel 1 (Homo sapiens) (P48048 whole entry, looked up): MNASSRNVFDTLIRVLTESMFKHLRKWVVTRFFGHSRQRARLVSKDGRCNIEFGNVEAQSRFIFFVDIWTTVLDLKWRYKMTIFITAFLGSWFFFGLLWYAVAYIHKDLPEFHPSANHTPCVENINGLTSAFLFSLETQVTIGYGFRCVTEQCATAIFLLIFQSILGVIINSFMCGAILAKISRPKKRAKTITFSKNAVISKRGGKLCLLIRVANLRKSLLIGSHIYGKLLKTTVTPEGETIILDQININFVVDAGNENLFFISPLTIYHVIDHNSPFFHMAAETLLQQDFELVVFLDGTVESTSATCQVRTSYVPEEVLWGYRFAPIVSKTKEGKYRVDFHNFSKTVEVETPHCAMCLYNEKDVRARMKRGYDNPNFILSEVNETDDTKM

Row | SMILES | IC50
1 | CCCC(=O)OCCNc1cc(Sc2nccn2C)c2nonc2c1[N+](=O)[O-] | 157 µM
2 | Cc1ccc(C(C)C)c(OCC(=O)NN=C(CCl)CCl)c1 | inactive
3 | CC(=O)c1ccc(N/N=C(/C(N)=O)C2=NC(C)(C)Cc3ccccc32)cc1 | 26.9 µM
4 | COc1ccc(NC(=O)/C(Cl)=C(/Cl)S(=O)Cc2ccccc2)cn1 (stereo unspecified) | 1.21 µM
5 | CN(C)c1nc(C=C(C#N)C#N)c(Cl)n1-c1ccc(F)cc1 | 2.98 µM
6 | O=C1N=C2SCCN2/C1=C\c1ccc(Cl)cc1 | 4.79 µM
7 | N#CC1=C(N)N(c2ccccc2)C(c2ccccc2)C1(C#N)C#N (stereo unspecified) | 32.2 µM
8 | N#C/C(=C\c1cccc(Oc2ccccc2)c1)C(=O)N1CCOCC1 | 6.57 µM
9 | N#C/C(=C\c1ccc(Cl)c([N+](=O)[O-])c1)c1ccccn1 | 3.6 µM
10 | C[n+]1c2n(c3ccccc31)N=C(c1cc(C(C)(C)C)c(O)c(C(C)(C)C)c1)CS2 | 73.3 µM
11 | O=c1c2ccccc2nc(/C=C/c2ccc([N+](=O)[O-])o2)n1CCCO | inactive
12 | CCCNC(=O)c1nnsc1S(=O)(=O)c1ccc(Cl)cc1 | 9.69 µM
13 | Cc1cc(C)n2nc(/C(C#N)=C/c3ccccn3)c(C#N)c2n1 | 88.3 µM
14 | CN(C)CCNC(=O)/C(=C/c1ccc(-c2ccc(Cl)cc2)o1)NC(=O)c1ccccc1 | inactive
15 | CCOc1ccccc1N(CC(=O)N1CCOCC1)S(=O)(=O)c1ccc(SC)cc1 | 1.4 µM
16 | CCCCC1(CCCC)C(=O)NC(=Nc2cccc(C)c2)NC1=O | 3.01 µM
17 | COc1cc(/C=C(\C#N)C(=O)Nc2ccccc2C(=O)O)cc(Cl)c1OC | 3.3 µM
18 | Cc1ccc2[nH]cc(C(=O)CCl)c2c1 | 4.14 µM
19 | Cc1ccccc1-n1sc2cc(F)ccc2c1=O | inactive
20 | Cn1c(/C(C#N)=C/c2cccc(O)c2)nc2ccccc21 | inactive
21 | CCCN1C(=O)/C(=C/c2ccncc2)SC1=S | 7.7 µM

Row | SMILES | IC50
22 | Cc1ccc2nc(NC(=O)C(NS(=O)(=O)c3cccc4nsnc34)C(C)C)sc2c1 (stereo unspecified) | inactive
23 | COc1cc(/C=C(\C#N)C(N)=O)ccc1OS(=O)(=O)c1ccc(C)cc1 | 31 µM
24 | O=C(c1nnsc1S(=O)c1ccc(Cl)cc1)N1CCOCC1 (stereo unspecified) | 2.2 µM
25 | Cc1cccc(C2c3[nH]c4ccccc4c3CCN2C(=O)c2nn(C)c(=O)c3ccccc23)n1 (stereo unspecified) | inactive
26 | CC1CCN(C(=O)CSCC(=O)Nc2nc(-c3cccs3)cs2)CC1 | inactive
27 | CCOC(=O)c1c(C)n(C)c2ccc(OC)c(NC(=O)CN3CCCCC3)c12 | 7.88 µM
28 | N#Cc1nc(-c2cccs2)oc1NCc1ccccc1 | 7.04 µM
29 | N#C/C(=C\c1cccc([N+](=O)[O-])c1)C(=O)NCC1CCCO1 (stereo unspecified) | inactive
30 | Cc1ccccc1N1C(=S)NC2c3ccccc3OC1(C)C2C(=O)N(C)C (stereo unspecified) | 0.0115 µM
31 | O=C(O)c1cccc(CN2C(=O)S/C(=C/c3cccc([N+](=O)[O-])c3)C2=O)c1 | 5.71 µM
32 | CC(C)c1[nH]nc2c1C(c1cccs1)C(C#N)=C(N)O2 (stereo unspecified) | inactive
33 | O=C(Nc1ccc2oc(=O)ccc2c1)c1cc([N+](=O)[O-])ccc1N1CCOCC1 | 3.41 µM
34 | O=C1c2[nH]nc(-c3ccccc3O)c2C(c2cccc(Cl)c2)N1CC1CCCO1 (stereo unspecified) | inactive
35 | CCOC(=O)c1ccc(-n2c(O)c(/C=N/NC(=O)C3COc4ccccc4O3)c3ccccc3c2=O)cc1 (stereo unspecified) | inactive
36 | Cc1cc2c(cc1S(=O)(=O)N(C)c1ccccc1)NC(=O)CO2 | 0.909 µM
37 | O=C(NCc1ccccc1)N1CCC(n2cnc3cc(F)ccc32)CC1 | inactive
38 | CC(C)(C)c1ccc(N2C(=N)SCC2=O)cc1 | 3.24 µM
39 | Cc1c(Nc2cc(Cl)c3nonc3c2[N+](=O)[O-])c(=O)n(-c2ccccc2)n1C | 52.8 µM
40 | N#C/C(=C\c1ccncc1)c1nc2ccccc2[nH]1 | inactive
41 | COCCCNc1ccc([N+](=O)[O-])cc1C(=O)Nc1cccc(C)n1 | 13.7 µM
